How the values were obtained:
[1] = system: satellite cells; test: Satellite cells in vitro in plasma of treated mice (live videomicroscopy, immunostaining); type: cell-based, mouse; conditions: for Reserve cells (quiescent Pax7 positive cells) 14 days post-plating: plasma from fluoxetine-treated animals
Procedure: (§1) Muscle dissection was done as previously described in cold DMEM. Muscles were then chopped with small scissors and put in a 50 ml Falcon tube with collagenase 0.1% and trypsin 0.25% at 37° C. with gentle agitation. After 20 minutes, the supernatant was collected in 20% serum placed on ice, and the collagenase/trypsin solution was added to continue the digestion. Once muscle was completely digested, the solution was filtrated using 40 μm cell strainers. Satellite cells were cultured in 1:1 DMEM-Glutamax (Gibco#41965-039):MCDB201 (Sigma#M6770) containing 20% serum FBS (Biowest S1860). Medium was filtered using 0.22 μm filters. Cells were plated on Matrigel coating (BD Biosciences#354234) and kept in an incubator (37° C., 5% CO2). […] The thus-obtained supernatant replaced FBS in the culture medium; the rest of the medium was unchanged.
Cells isolated by FACS were plated overnight on a 24-well glass bottom plate (P24G-0-10-F; MatTek) coated with matrigel (BD Biosciences#354234) and placed in an incubator in pre-equilibrated medium (1:1 DMEM Glutamax: MCDB [Sigma-Aldrich], 20% FCS (Biowest S1860). The plate was then incubated at 37° C., 5% CO2 (Zeiss, Pecon). A Zeiss Observer.Z1 connected with a LCI PInN 10×/0.8 W phaseII objective and AxioCam camera piloted with AxioVision was used. Cells were filmed for up to 5 days, and images were taken every 30 min with brightfield and phase filters and MozaiX 3×3 (Zeiss). Raw data were transformed and presented as a video.
Those results were confirmed in vitro (FIG. 7a). […] This difference was lost when SC were plated with GR127935 (p=0.4) (FIG. 7e). The faster exit of quiescence and higher division rates were also lost when adding GR127935 in vitro (FIGS. 7f,g). The effects of the plasma from fluoxetine-treated animals were persistent when adding MDL100907 (FIGS. 7b-g).

[2] = system: vessels; test: Vessel number in tibialis anterior of treated mice (Flk1GFP/+ or CD31 immunostaining); type: in vivo, mouse; conditions: GR127935 in osmotic pump together with vortioxetine I.P 12 days
[3] = system: satellite cells; test: FACS-sorted satellite cells in vitro, compound added to the culture medium; type: cell-based, mouse
Procedure: as §1
Satellite cells were isolated from Tg:Pax7nGFP mice and cells were plated at 2.000 cells per cm^2. After overnight, vortioxetine was added at 10 μM. […] 14 days post-plating, a higher number of reserve cells (Pax7 positive cells that are quiescent in vitro) were detected in the vortioxetine-treated cells (9%±0.7) than in the PBS (3.5%±0.9, p=0.01), and when GR127935 inhibitor was added in vitro the number of reserve cells dropped (3.5%±0.9, p=0.9) (FIG. 11c). […] This difference in expression was lost when SC were plated with the GR127935 5-HT1 BR inhibitor (p=0.4) (FIGS. 11c-e). The positive effects of vortioxetine were lost when GR127935 was added in vitro together with vortioxetine (FIGS. 11c-e). These effects were however persistent when adding the 5-HT2 BR antagonist (FIGS. 11c-e). This means that the positive effects observed when plating vortioxetine in vitro with satellite cells is mediated via the 5HT1B receptor and not 5HT2B.
To test whether, 2 derivatives of vortioxetine, namely histidine-vortioxetine and pyrrolidinium-vortioxetine, could have similar or improved effect compared to the unmodified vortioxetine, the in vitro approach as described in section 2.2.3 above was used and the differentiation cascade of satellite cells was investigated by assessing the expression pattern of Pax7 (a marker of stemness and quiescence) and Myogenin (MyoG, a marker of differentiation) as described above in section 2.2.3. To do so, satellite cells from Tg:Pax7-nGFP were isolated by FACS and plated at 2.000 cells per cm^2 (seeded overnight). The following day, the vortioxetine, its derivatives, or the control PBS was added at 10 μM and the cells were fixed at the indicated time points.

[4] = system: extensor digitorum longus (edl) fibers; test: Tension of isolated muscle fibers of mdx mice; type: in vivo, mouse; conditions: fluoxetine treated mdx mice
Procedure: Small bundles of two to five fibers were manually isolated from the muscles as previously described. Chemical skinning was carried out using Triton X-100. Skinned fibers were mounted in the Displacement Measuring System KD 2300 (model 0.5 SU, Kaman Instrumentation, Colorado Springs, Colo., USA). To perform force measurements, skinned fiber preparations were incubated for 1 h in relaxing solution (pCa 9.0, low calcium content) containing 1% Triton X-100 (v/v) to solubilize the sarcolemma and the sarcoplasmic reticulum membranes, and were subsequently washed several times in relaxing solution without detergent. Fibres were adjusted to slack length and then stretched progressively until the tension developed became maximal. Isometric tension was recorded continuously using a chart recorder (model 1200, Linear, Reno, Nev., USA). The tension obtained was normalized to fibre cross-sectional area.
This was confirmed on soleus muscle (data not shown).

[5] = system: cytokines; test: Plasmatic cytokine levels by Luminex in Mdx mice; type: in vivo, mouse; conditions: fluoxetine P.O. 6 weeks
Source text: (§2) Snap frozen plasma samples (n=6 per condition) were thawed out, and supernatant was processed for Luminex® multiple cytokine and chemokine analysis (Bio-Plex® Pro™ Mouse Cytokine Standard 23-Plex, Group I and Standard 9-Plex, Group II). Normalization was done by sample weight of frozen muscle.

[6] = system: serotonin receptors subtypes; test: RT-qPCR of serotonin receptor subtypes in FACS-sorted muscle cells after treatment; type: in vivo, mouse; conditions: 6 weeks P.O fluoxetine; FACS-sorted endothelial cells
Procedure: Total RNA was isolated from cells using the RNAeasy Micro kit (Qiagen). The total RNA was reverse-transcribed using Superscript® III Reverse transcriptase (Invitrogen). Real-time quantitative PCR was performed using Power Sybr Green PCR Master Mix (Applied Biosystems) and the rate of dye incorporation was monitored using the StepOne™ Plus RealTime PCR system (Applied Biosystems). At least three biological replicates were used for each condition. Data were analyzed by StepOne Plus RT PCR software v2.1 and Microsoft excel. GAPDH transcript levels were used for normalisation of each target (=ΔCT). Real-time PCR CT values were analyzed using the 2-(ΔΔCt) method to calculate the fold expression (ΔΔCTmethod, Livak et al., 2001).
RT-qPCR was then performed on serotonin receptors subtypes to further characterize by which the endothelial cells could be activated (FIG. 5b). […] The same observation was made in FACS cell-sorted SC from Tg:Pax7nGFP mice (FIG. 5b).

[7] = system: cytokines; test: Plasmatic cytokine levels by Luminex after notexin injury; type: in vivo, mouse; conditions: injured with fluoxetine treatment
Source text: as §2

[8] = system: cytokines; test: Plasmatic cytokine levels by Luminex in treated mice; design: species or system mouse; conditions: fluoxetine 6 weeks in vivo; vs placebo
Source text: Snap frozen plasma samples (n=6 per condition) were thawed out, and supernatant was processed for Luminex® multiple cytokine and chemokine analysis (Bio-Plex® Pro™ Mouse Cytokine Standard 23-Plex, Group I and Standard 9-Plex, Group II). Normalization was done by sample weight of frozen muscle. […]

[9] = 20% plasma from fluoxetine treated C57Bl/6 mice, live-videomicroscopy

## COc1ccc(NC(=O)c2ccc(-c3ccc(-c4noc(C)n4)cc3C)cc2)cc1N1CCN(C)CC1 [GR127935]
[1]; plasma from fluoxetine treated animals incubated with GR127935
  Pax7 positive cells 4 days post-plating: 35.25%
[1]; GR127935 added in vitro
  Reserve cells (quiescent Pax7 positive cells) 14 days post-plating: 4.5%
[1]; plasma from fluoxetine-treated mice plus GR127935
  MyoG expression difference when plated with GR127935: lost
[1]; plasma from fluoxetine-treated mice plus GR127935 in vitro
  Faster exit of quiescence and higher division rates when adding GR127935: lost
[2]
  Number of vessels: 928±207 vessels per mm^2
[3]; GR127935 added in vitro together with vortioxetine 10 μM
  Positive effects of vortioxetine (incl. MyoG expression difference) when GR127935 added: lost
[3]; vortioxetine 10 μM incubated with the GR127935 inhibitor
  Pax7 positive cells 4 days post-plating: 25.5%
[3]; vortioxetine 10 μM, GR127935 inhibitor added in vitro
  Reserve cells (quiescent Pax7 positive cells) 14 days post-plating: 3.5%

## CNCCC(Oc1ccc(C(F)(F)F)cc1)c1ccccc1 (stereo not shown) [fluoxetine]
[4]
  Force increase of isolated single fibers of extensor digitorum longus (edl): 45%
[5]
  Level of IL6: 34.52 ± 21 pg/mL
  Level of IL10: 99.6 ± 56 pg/mL
[6]
  Expression of other subtypes (5-HT1 AR, 5-HT1 DR, 5-HT1 FR, 5-HT2 AR, 5-HT2 CR): non-statistically significant increase
[7]
  IL-6 level after injury: 2459 ± 920 pg/µL
[1]; 20% plasma from fluoxetine treated C57Bl/6 mice
  Myogenine positive cells 4 days post-plating: 34.75±6.3 % of total plated cells
[1]; [9]
  Division rate: 8.7 ± 0.7 h
  First satellite cells division, time post-plating: 26.45 h
[1]; plasma from fluoxetine treated animals
  Pax7 positive cells 4 days post-plating: 24%
[1]
  Reserve cells (quiescent Pax7 positive cells) 14 days post-plating: 9.4%
[1]; plasma from fluoxetine-treated mice vs placebo
  Myogenin (MyoG) expression increase: 3 times increase
[1]; plasma from fluoxetine-treated mice vs placebo vs GR127935
  MyoD (activation marker) expression between conditions: did differ at any time investigated
[8]
  Levels of IL-1a, IL-1b, IL-2 and eotaxin: downregulated
  Levels of IL-4 and IL-13: upregulated

Source: patent US10493046B2, “5-hydroxytryptamine 1B receptor-stimulating agent for use as a promoter of satellite cells self-renewal and/or differentiation” (INSTITUT PASTEUR, priority 2015, dated 2019)
